Holding throughout (experiment): Bacterial susceptibility testing, MIC by broth microdilution (CLSI)
Common to all, as to assay type: cell-based
Background: Dilution methods test growth across graded concentrations, often in twofold steps.

Test [1] has as its system P. aeruginosa 209 PAO1. The conditions noted are these: Pseudomonas aeruginosa. How it is done: (§1) Minimal inhibitory concentrations (MIC) were determined by the broth microdilution method in accordance with the Clinical and Laboratory Standards Institute (CLSI) guidelines. In brief, organism suspensions were adjusted to a final inoculum between 3×10^5 and 7×10^5 colony-forming units (CFU)/mL. Drug dilutions and inocula were made in sterile, cation adjusted Mueller-Hinton Broth (Beckton Dickinson). In wells, an inoculum volume of 100 μL was mixed to 2 μL of DMSO with 2-fold serial dilutions of drug. All inoculated microdilution trays were incubated in ambient air at 35° C. for 18-24 h. Following incubation, the lowest concentration of the drug that prevented visible growth (OD600 nm<0.05) was recorded as the MIC. Performance of the assay was monitored by the use of laboratory quality-control strains and compounds with defined MIC spectrum, in accordance with CLSI guidelines.

The subject of test [2] is K. pneumoniae ATCC13883. The settings on record: Klebsiella pneumoniae. How it is done: as §1
For test [3], the system named is P. aeruginosa ATCC27835. The settings on record: Pseudomonas aeruginosa. How it is done: as §1
Test [4] deals with E. coli ATCC25922. The conditions noted are these: Escherichia coli. How it is done: as §1
Where [5] appears, read: PAO1, broth microdilution, 35° C., 18-24 h, read-out: MIC P. aeruginosa 209 PAO1.
The mark [6] stands for this setting: ATCC13883, broth microdilution, 35° C., 18-24 h, read-out: MIC K. pneumoniae ATCC13883.
Where [7] appears, read: ATCC27835, broth microdilution, 35° C., 18-24 h, read-out: MIC P. aeruginosa ATCC27835.
[8] abbreviates: ATCC25922, broth microdilution, 35° C., 18-24 h, read-out: MIC E. coli ATCC25922.

In brackets after ≈: the same amount, converted by molar mass. Read-outs that look alike come from different tables or passages of the source.

Turning to `C[C@H](O)c1nccn1[C@@H](/C=C/c1ccc(-c2ccc(C3C[C@H]3OCC(N)CO)cc2)cc1)CO` (stereo partly drawn) [Compound 72, (2S,E)-4-(4′-((1S,2R)-2-(2-amino-3-hydroxypropoxy)cyclopropyl)-[1,1′-biphenyl]-4-yl)-2-(2-((S)-1-hydroxyethyl)-1H-imidazol-1-yl)but-3-en-1-ol], the MIC – broadly, the least concentration at which growth counts as inhibited – in test [1] (setting [5]) stood at 2 µg/mL (≈ 4.31 µM); in test [2] (setting [6]), 8 µg/mL (≈ 17.3 µM); in test [3] (setting [7]), 2 µg/mL (≈ 4.31 µM); in test [4] (setting [8]), 2 µg/mL (≈ 4.31 µM).
Consider `C[C@H](O)c1nccn1[C@@H](/C=C/c1ccc(-c2ccc(OCC(O)CN)cc2)cc1)CO` (mixture of isomers) [Compound 22, (2S,E)-4-(4′-(3-amino-2-hydroxypropoxy)-[1,1′-biphenyl]-4-yl)-2-(2-((S)-1-hydroxyethyl)-1H-imidazol-1-yl)but-3-en-1-ol], for which the MIC came out at 4 µg/mL (≈ 9.44 µM) in test [1] (setting [5]), 64 µg/mL (≈ 151 µM) in test [2] (setting [6]), 2 µg/mL (≈ 4.72 µM) in test [3] (setting [7]) and 16 µg/mL (≈ 37.8 µM) in test [4] (setting [8]).
The matching figures for `C[C@H](O)c1nccn1[C@@H](/C=C/c1ccc(-c2ccc(C3CC(CNCCO)C3)cc2)cc1)CO` (stereo partly drawn) [Compound 61, (S,E)-2-(2-((S)-1-hydroxyethyl)-1H-imidazol-1-yl)-4-(4′-(3-(((2-hydroxyethyl)amino)methyl)cyclobutyl)-[1,1′-biphenyl]-4-yl) but-3-en-1-ol]: 4 µg/mL (≈ 8.67 µM), 8 µg/mL (≈ 17.3 µM), 4 µg/mL (≈ 8.67 µM) and 2 µg/mL (≈ 4.33 µM).
On to `C[C@H](O)c1nccn1[C@@H](/C=C/c1ccc(-c2ccc(C3CC(NCC(=O)O)C3)cc2)cc1)CO` (stereo partly drawn) [Compound 44, (3-(4′-((S,E)-4-hydroxy-3-(2-((S)-1-hydroxyethyl)-1H-imidazol-1-yl)but-1-en-1-yl)-[1,1′-biphenyl]-4-yl)cyclobutyl)glycine], for which the MIC in test [1] (setting [5]) turned out to be 4 µg/mL (≈ 8.67 µM); in test [2] (setting [6]) it was 8 µg/mL (≈ 17.3 µM); in test [3] (setting [7]), 4 µg/mL (≈ 8.67 µM); in test [4] (setting [8]) it was 4 µg/mL (≈ 8.67 µM).
Regarding `C[C@H](O)c1nccn1C/C=C/c1ccc(-c2ccc(OCCN3CC(CN)C3)cc2)cc1` [Compound 6, (S,E)-1-(1-(3-(4′-(2-(3-(aminomethyl)azetidin-1-yl)ethoxy)-[1,1′-biphenyl]-4-yl)allyl)-1H-imidazol-2-yl)ethan-1-ol], the MIC was found to be 4 µg/mL (≈ 9.25 µM) in test [1] (setting [5]), 16 µg/mL (≈ 37 µM) in test [2] (setting [6]), 4 µg/mL (≈ 9.25 µM) in test [3] (setting [7]) and 4 µg/mL (≈ 9.25 µM) in test [4] (setting [8]).
For `C[C@H](O)c1nccn1[C@@H](/C=C/c1ccc(-c2ccc(OCC(O)CN(C)C)cc2)cc1)CO` (mixture of isomers) [Compound 21, (2S,E)-4-(4′-(3-(dimethylamino)-2-hydroxypropoxy)-[1,1′-biphenyl]-4-yl)-2-(2-((S)-1-hydroxyethyl)-1H-imidazol-1-yl)but-3-en-1-ol], the MIC in test [1] (setting [5]) worked out at 8 µg/mL (≈ 17.7 µM); in test [2] (setting [6]) it was 64 µg/mL (≈ 142 µM); in test [3] (setting [7]) it was 4 µg/mL (≈ 8.86 µM); in test [4] (setting [8]), 16 µg/mL (≈ 35.4 µM).
The like results for `C[C@H](O)c1nccn1C/C=C/c1ccc(-c2ccc(OCC3(N)CC3)cc2)cc1` [Compound 7, (S,E)-1-(1-(3-(4′-((1-aminocyclopropyl)methoxy)-[1,1′-biphenyl]-4-yl)allyl)-1H-imidazol-2-yl)ethan-1-ol] were, in that order, 2 µg/mL (≈ 5.13 µM), 0.25 µg/mL (≈ 0.642 µM), 4 µg/mL (≈ 10.3 µM) and 0.25 µg/mL (≈ 0.642 µM).
Regarding `C[C@H](O)c1nccn1[C@@H](/C=C/c1ccc(-c2ccc([C@H]3C[C@H](NC(=O)CC#N)C3)cc2)cc1)CO` [Compound 65, 2-cyano-N-((1S,3r)-3-(4′-((S,E)-4-hydroxy-3-(2-((S)-1-hydroxyethyl)-1H-imidazol-1-yl)but-1-en-1-yl)-[1,1′-biphenyl]-4-yl)cyclobutyl)acetamide], the MIC in test [1] (PAO1, read-out: MIC P. aeruginosa 209 PAO1) amounted to 2 µg/mL (≈ 4.25 µM); in test [2] (ATCC13883, read-out: MIC K. pneumoniae ATCC13883) it was 1 µg/mL (≈ 2.13 µM); in test [3] (ATCC27835, read-out: MIC P. aeruginosa ATCC27835) it was 2 µg/mL (≈ 4.25 µM); in test [4] (ATCC25922, read-out: MIC E. coli ATCC25922), 0.5 µg/mL (≈ 1.06 µM).
Take `C[C@H](O)c1nccn1[C@@H](/C=C/c1ccc(-c2ccc(C3CC(C(=O)NCc4c[nH]cn4)C3)cc2)cc1)CO` (stereo partly drawn) [Compound 55, N-((1H-imidazol-4-yl)methyl)-3-(4′-((S,E)-4-hydroxy-3-(2-((S)-1-hydroxyethyl)-1H-imidazol-1-yl)but-1-en-1-yl)-[1,1′-biphenyl]-4-yl)cyclobutane-1-carboxamide]: the MIC in test [1] (setting [5]) came to 2 µg/mL (≈ 3.91 µM); in test [2] (setting [6]) it was 2 µg/mL (≈ 3.91 µM); in test [3] (setting [7]) it was 2 µg/mL (≈ 3.91 µM); in test [4] (setting [8]), 0.5 µg/mL (≈ 0.977 µM).
Turning to `C[C@H](O)c1nccn1[C@@H](/C=C/c1ccc(-c2ccc(C3CC(C(=O)NCc4cocn4)C3)cc2)cc1)CO` (stereo partly drawn) [Compound 54, 3-(4′-((S,E)-4-hydroxy-3-(2-((S)-1-hydroxyethyl)-1H-imidazol-1-yl)but-1-en-1-yl)-[1,1′-biphenyl]-4-yl)-N-(oxazol-4-ylmethyl)cyclobutane-1-carboxamide], the MIC turned out to be 2 µg/mL (≈ 3.9 µM) in test [1] (setting [5]), 1 µg/mL (≈ 1.95 µM) in test [2] (setting [6]), 4 µg/mL (≈ 7.8 µM) in test [3] (setting [7]) and 0.5 µg/mL (≈ 0.975 µM) in test [4] (setting [8]).
The like results for `C[C@H](O)c1nccn1[C@@H](/C=C/c1ccc(-c2ccc(C3CC(C(=O)NCCO)C3)cc2)cc1)CO` (stereo partly drawn) [Compound 49, 3-(4′-((S,E)-4-hydroxy-3-(2-((S)-1-hydroxyethyl)-1H-imidazol-1-yl)but-1-en-1-yl)-[1,1′-biphenyl]-4-yl)-N-(2-hydroxyethyl)cyclobutane-1-carboxamide] were, in that order, 2 µg/mL (≈ 4.21 µM), 4 µg/mL (≈ 8.41 µM), 2 µg/mL (≈ 4.21 µM) and 4 µg/mL (≈ 8.41 µM).
The matching figures for `C[C@H](O)c1nccn1[C@@H](/C=C/c1ccc(-c2ccc(C3CC(NC[C@@H]4CNC(=O)O4)C3)cc2)cc1)CO` (stereo partly drawn) [Compound 46, (R)-5-(((3-(4′-((S,E)-4-hydroxy-3-(2-((S)-1-hydroxyethyl)-1H-imidazol-1-yl)but-1-en-1-yl)-[1,1′-biphenyl]-4-yl)cyclobutyl)amino)methyl) oxazolidin-2-one]: 4 µg/mL (≈ 7.96 µM), 2 µg/mL (≈ 3.98 µM), 4 µg/mL (≈ 7.96 µM) and 0.5 µg/mL (≈ 0.995 µM).
The like results for `COC(=O)C1CC(c2ccc(-c3ccc(/C=C/[C@@H](CO)n4ccnc4[C@H](C)O)cc3)cc2)C1` (stereo partly drawn) [Compound 67, methyl 3-(4′-((S,E)-4-hydroxy-3-(2-((S)-1-hydroxyethyl)-1H-imidazol-1-yl)but-1-en-1-yl)-[1,1′-biphenyl]-4-yl)cyclobutane-1-carboxylate] were, in that order, 2 µg/mL (≈ 4.48 µM), 1 µg/mL (≈ 2.24 µM), 2 µg/mL (≈ 4.48 µM) and 0.5 µg/mL (≈ 1.12 µM).

Values taken from US20240150298A1, “ANTIBACTERIAL COMPOUNDS” (Blacksmith Medicines, Inc., priority 2021, published 2024).
